According to ChEMBL document CHEMBL5143635, “Synthesis and biological evaluation of artemisinin derivatives as potential MS agents” (Bioorg Med Chem Lett, 2022):
Calls of active or inactive are those of the source. The rule behind the calls is not given here.

What was measured:
[1] = Inhibition of Th17 cells differentiation in C57BL/6 mouse spleen CD4+ve Th cells assessed as decrease in IL-17A production at 10 uM measured after 4 days by flow cytometry analysis; type: functional; details: C57BL/6, CD4+ve Th, 96 h, time 4 day
[2] = system: CD4+ve Th; assay: Inhibition of Th17 cells differentiation in C57BL/6 mouse spleen CD4+ve Th cells assessed as decrease in IL-17A production at high concentrations measured after 4 days by flow cytometry analysis; type: functional, cell-based; details: time 4.0 day
[3] = Inhibition of Th1 cells differentiation in C57BL/6 mouse spleen CD4+ve Th cells assessed as decrease in IFNgamma production at 10 uM measured after 4 days by flow cytometry analysis (reference value: 41%); type: functional; details: C57BL/6, CD4+ve Th, 96 h, time 4 day
[4] = Inhibition of Th17 cells differentiation in C57BL/6 mouse spleen CD4+ve Th cells assessed as decrease in IL-17A production at 10 uM measured after 4 days by flow cytometry analysis (reference value: 28%); type: functional; details: C57BL/6, CD4+ve Th, 96 h, time 4 day
[5] = system: Mus musculus; assay: Immunosuppressive activity in MOG 35-55 residues/pertussis toxin-immunized autoimmune encephalomyelitis C57BL/6 mouse model assessed as suppression of disease progression by measuring clinical cumulative score at 100 mg/kg,po administered daily from day 3 measured for 21 days; type: functional, organism-based; details: time 21.0 day
[6] = Toxicity in MOG 35-55 residues/pertussis toxin-immunized autoimmune encephalomyelitis C57BL/6 mouse model assessed as change in body weight at 100 mg/kg,po administered daily from day 3 measured for 21 days; type: organism-based; details: in vivo, 504 h, time 21 day
[7] = Inhibition of Th17 cells differentiation in C57BL/6 mouse spleen CD4+ve Th cells assessed as decrease in IL-17A production at 10 uM measured after 4 days by flow cytometry analysis (reference value: 23%); type: functional; details: C57BL/6, CD4+ve Th, 96 h, time 4 day

Row | SMILES | inhibition at 10 µM [1] [%] | inhibition [2] | also measured
1 | C[C@H]1[C@@H](SC(=O)CCCC[C@H]2CCSS2)O[C@@H]2O[C@@]3(C)CC[C@H]4[C@H](C)CC[C@@H]1[C@@]24OO3 | < 6 | Active | –
2 | C[C@H]1[C@@H](SC(=O)Nc2ccc(OC(F)(F)F)cc2)O[C@@H]2O[C@@]3(C)CC[C@H]4[C@H](C)CC[C@@H]1[C@@]24OO3 | < 6 | Active | –
3 | C[C@H]1[C@@H](OC(=O)CCCC[C@H]2CCSS2)O[C@@H]2O[C@@]3(C)CC[C@H]4[C@H](C)CC[C@@H]1[C@@]24OO3 | – | – | inhibition at 10 µM [3]: 3%; inhibition at 10 µM [4]: 8%; Activity [5]: Active; Activity [6]: Toxic
4 | C[C@@H]1CC[C@H]2[C@@](C)(F)[C@@H](OC(=O)Nc3ccc(OC(F)(F)F)cc3)O[C@@H]3O[C@@]4(C)CC[C@@H]1[C@]32OO4 | < 6 | Active | –
5 | C[C@@H]1CC[C@H]2C(C)(C)[C@@H](OC(=O)Nc3ccc(OC(F)(F)F)cc3)O[C@@H]3O[C@@]4(C)CC[C@@H]1[C@]32OO4 | < 6 | Active | –
6 | C[C@H]1[C@@H](S)O[C@@H]2O[C@@]3(C)CC[C@H]4[C@H](C)CC[C@@H]1[C@@]24OO3 | – | – | inhibition at 10 µM [7]: 12%
7 | C[C@@H]1CC[C@H]2[C@@](C)(Cl)[C@@H](OC(=O)Nc3ccc(OC(F)(F)F)cc3)O[C@@H]3O[C@@]4(C)CC[C@@H]1[C@]32OO4 | < 6 | Active | –
